Experimental data reported in patent US10709724B2, “Methods of treating mitochondrial dysfunction” (Ecole Polytechnique Federale de Lausanne (EPFL), priority 2011, dated 2020).
Where “and” joins values, the source holds several entries; their conditions need not be identical. Identical values can stand only once. Entries after “also recorded” stand apart in the source; their conditions may differ.

What was measured:
[1] = system: C. elegans; test: Worm respiration assay (Seahorse XF24); type: in vivo; settings: day 3 adult worms
Description: Worm Respiration Assays Oxygen consumption was measured using the Seahorse XF24 equipment (Seahorse Bioscience Inc., North Billerica, Mass.) as described in Yamamoto et al. Typically, 200 animals per conditions were recovered from NGM plates with M9 medium, washed three times in 2 mLM9 to eliminate residual bacteria, and resuspended in 500 μL M9 medium. Worms were transferred in 24-well standard Seahorse plates (#100777-004) (50 worms per well) and oxygen consumption was measured 6 times. Respiration rates were normalized to the number of worms in each individual well. NAD measurement by HPLC For NAD+ quantification, approximately 1000 worms were collected in M9 buffer, washed five times to remove residual bacteria and flash-frozen in liquid nitrogen and stored at −80° C. until analysis. Extraction was started by adding 250 μl of 1.6M perchloric acid on frozen samples, followed by extensive homogenization in a Qiagen tissuelyser, and centrifugation at 20.000 g for 15 min. The supernatant was recovered and neutralized with a 3M potassium carbonate solution. After centrifugation, 100 μl of supernatant was filtered and used for NAD measurement using an HPLC system (Agilent) with a Supelco LC-18-T column (Sigma), as described in Yoshino et al. (Yoshino, K. F. Mills, M. J. Yoon, S. Imai, Nicotinamide Mononucleotide, a Key NAD(+) Intermediate, Treats the Pathophysiology of Diet- and Age-Induced Diabetes in Mice. Cell Metab 14, 528 (2011)).

[2] = system: C. elegans; test: Worm fluorescence analysis (endogenous gut fluorescence/lipofuscin, sod-3::GFP); settings: in vivo
Description: Fluorescence Analysis Quantification of GFP expression and endogenous gut fluorescence were carried out according to the protocol as described in Yamamoto et al. (Yamamoto et al., NCoR1 is a conserved physiological modulator of muscle mass and oxidative function. Cell 147, 827 (2011)). Briefly, GFP was monitored in day 1 or day 3 adults. Fluorimetric assays were performed using a Victor X4 multilabel plate reader (Perkin-Elmer Life Science). Eighty worms were picked at random (20 worms per well of a black-walled 96-well plate) and each well was read four times and averaged. Each experiment was repeated at least three times. Endogenous gut fluorescence was monitored at day 1, day 4 and day 8 by following the same protocol as described before.

[3] = system: C. elegans; test: Quantitative RT-PCR in worms; type: in vivo
Description: mRNA and mtDNA Analysis. Total RNA was prepared using TRIzol (Invitrogen) according to the manufacturer's instructions. RNA was treated with DNase, and 2 μg of RNA was used for reverse transcription (RT). cDNA was purified on QIAquick PCR cleanup columns (Qiagen, Valencia, Calif., USA). 50× diluted cDNA was used for RT-quantitative PCR (RT-VCR) VCR) reactions (Bai et al., 2007). The RT-qPCR reactions were performed using the Light-Cycler system (Roche Applied Science) and a qPCR Supermix (Qiagen) with the primers for mice summarized in Table 1 and 4, and with the primers for worms summarized on Table 7. mtDNA quantification was performed as described (Lagouge et al., 2006) with the primers indicated in Table 2 and 5.

[4] = system: C. elegans; test: Worm lifespan analysis; type: in vivo; settings: for variation compared to control (%): vs N2 + water
Description: Worm Lifespan Analysis Lifespan tests were performed as described in Mouchiroud et al (L. Mouchiroud et al., Pyruvate imbalance mediates metabolic reprogramming and mimics lifespan extension by dietary restriction in Caenorhabditis elegans. Aging Cell 10, 39 (2011)). Briefly, 60-100 animals were used per conditions and scored every other day. All lifespan experiments were performed at 20° C. […] Animals were exposed to compounds during the full life from eggs until death. To ensure a permanent exposure to the compound, plates were changed twice a week. All the compounds used in this study were dissolved in a water stock solution.

[5] = system: C. elegans; test: Confocal microscopy of mitochondria in body wall muscle (pmyo-3::mito::GFP reporter); settings: in vivo
Description: Confocal Microscopy and Image Processing Worms were immobilized with 6 mM solution of tetramisole hydrochloride (Sigma, Buchs, Switzerland) in M9 and mounted on 6% agarose pads on glass slides. Images of worms were acquired using Zeiss LSM 700 Upright confocal microscope (Carl Zeiss AG, Oberkochen, Germany) under non-saturating exposure conditions. All the snapshots were taken from the same part of C. elegans: muscles from the upper part of the worm, excluding the regions of oesophagus and vulva. For each condition multiple worms were observed and imaged. Image processing was performed with the Fiji software. One of the critical issues during the imaging process was the position of the worm, as it influences the level of background. For the uniformity of the represented images, contrast and brightness were adjusted in order, to eliminate the undesirable background signal. Neither of these manipulations was affecting the mitochondrial shape. Tracing of the mitochondrial network contour was done by the use of Gaussian blur filter followed by the application of Laplacian operator.

[6] = system: C. elegans; test: MitoSox staining of worms (mitochondrial superoxide); type: in vivo; settings: day 3
Description: Briefly, a population of 100 worms was recovered in 1 ml of M9 buffer, washed three times to remove residual bacteria, and resuspended in 200 μl of 1:200 MitoSox stock solution (initial stock solution was dissolved at 1 mM in DMSO). After 20 minutes of treatment, worms were washed five times in 1 ml of M9 buffer to eliminate the MitoSox reagent, and then transferred in a black-walled 96-well plate for reading. Fluorescence produced by the Mitosox reaction was measured as described before.

For `O=C(c1cc(Cc2n[nH]c(=O)c3ccccc23)ccc1F)N1CCN(C(=O)C2CC2)CC1` [AZD2281], the “oxygen consumption (respiration)” value [1] was “robustly increased respiration; also recorded: Oxygen consumption was increased”, the “accumulation of the aging pigment lipofuscin” value [2] was “reduced lipofuscin accumulation; also recorded: decreased the accumulation of the aging pigment lipofuscin” and the “sod-3::GFP” value [2] was “increase in sod-3::GFP”. For the same compound, the “expression of genes of mitochondrial oxidative metabolism (cts-1, cox-4)” value ([3]; day 3 of adulthood) was “increased expression of citrate synthase (cts-1) and cytochrome c oxidase subunit 4 (cox-4); also recorded: increased expression of genes involved in mitochondrial oxidative metabolism”, the daf-16 expression ([3]; in vivo) was “did not change expression of daf-16” and the sod-3 expression ([3]; in vivo) was “marked induction”. For the same compound, the lifespan extension ([4]; 100 nM (FIG. 34B)) was 22.9%, the “mean lifespan ± SE” value ([4]; N2, 100 nM, listed as AZD) was 22.8 ± 0.9 days and 24.7 ± 0.669 days and 26.5 ± 0.77 days and 24.5 ± 0.94 days and 24.7 ± 0.55 days and the “mean lifespan ± SE” value ([4]; N2, 500 nM) was 22.2 ± 1.15 days. For the same compound, the “variation compared to control (%)” value ([4]; N2, 500 nM) was “+14.4%”, the “mean lifespan ± SE” value ([4]; N2, 1000 nM) was 21.2 ± 0.96 days and the “variation compared to control (%)” value ([4]; N2, 1000 nM) was “+9.2%”. For the same compound, the “lifespan in daf-16 mutant worms” value ([4]; daf-16(mu86) mutant worms) was “failed to increase lifespan; also recorded: fails to extend lifespan”, the “mean lifespan ± SE” value ([4]; daf-16(mu86), 100 nM) was 18.2 ± 0.76 days and the “variation compared to control (%)” value ([4]; daf-16(mu86), 100 nM) was −16.1%. For the same compound, the “mean lifespan ± SE” value ([4]; pme-1(ok988), 100 nM) was 26.1 ± 0.78 days, the “variation compared to control (%)” value ([4]; pme-1(ok988), 100 nM) was “+31.2%” and the “lifespan of the pme-1 mutant” value ([4]; pme-1 mutant worms) was “not further extended; also recorded: pme-1-dependent manner”. For the same compound, the “lifespan in sir-2.1(ok434) mutant / sir-2.1 dependence” value ([4]; sir-2.1(ok434) mutant worms) was “lost the AZD2281-induced longevity; also recorded: does not extend lifespan”, the “mean lifespan ± SE” value ([4]; sir-2.1(ok434), 100 nM) was 21.9 ± 0.528 days and the “variation compared to control (%)” value ([4]; sir-2.1(ok434), 100 nM) was “+6.7%”. For the same compound, the “mitochondrial content in body wall muscle” value [5] was “more dense mitochondrial network” and the “ROS production (mitoSOX)” value [6] was “ROS production was decreased”.
